Where a name gives a salt, the structure may show the parent alone. Read-outs that look alike come from different tables or passages of the source.
Key:
human TLR7 = human TLR7 (Homo sapiens (Human), UniProt Q9NYK1); experiment: TLR7 inhibition reporter assay (HEK-Blue SEAP reporter, gardiquimod stimulation); assay type: cell-based; conditions: HEK-Blue cells overexpressing human TLR7, gardiquimod 7.5 μM
human TLR8 = human TLR8 (Homo sapiens (Human), UniProt Q9NR97); experiment: TLR8 inhibition reporter assay (HEK-Blue SEAP reporter, R848 stimulation);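 also: SEAP driven by IFN-β minimal promoter with NF-κB and AP-1 sites, 22 h incubation, compounds 0.05 nM–50 µM, inhibition scaled between agonist plus DMSO and reference inhibitor wells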
Sequence of human TLR8 (Q9NR97 27-1041): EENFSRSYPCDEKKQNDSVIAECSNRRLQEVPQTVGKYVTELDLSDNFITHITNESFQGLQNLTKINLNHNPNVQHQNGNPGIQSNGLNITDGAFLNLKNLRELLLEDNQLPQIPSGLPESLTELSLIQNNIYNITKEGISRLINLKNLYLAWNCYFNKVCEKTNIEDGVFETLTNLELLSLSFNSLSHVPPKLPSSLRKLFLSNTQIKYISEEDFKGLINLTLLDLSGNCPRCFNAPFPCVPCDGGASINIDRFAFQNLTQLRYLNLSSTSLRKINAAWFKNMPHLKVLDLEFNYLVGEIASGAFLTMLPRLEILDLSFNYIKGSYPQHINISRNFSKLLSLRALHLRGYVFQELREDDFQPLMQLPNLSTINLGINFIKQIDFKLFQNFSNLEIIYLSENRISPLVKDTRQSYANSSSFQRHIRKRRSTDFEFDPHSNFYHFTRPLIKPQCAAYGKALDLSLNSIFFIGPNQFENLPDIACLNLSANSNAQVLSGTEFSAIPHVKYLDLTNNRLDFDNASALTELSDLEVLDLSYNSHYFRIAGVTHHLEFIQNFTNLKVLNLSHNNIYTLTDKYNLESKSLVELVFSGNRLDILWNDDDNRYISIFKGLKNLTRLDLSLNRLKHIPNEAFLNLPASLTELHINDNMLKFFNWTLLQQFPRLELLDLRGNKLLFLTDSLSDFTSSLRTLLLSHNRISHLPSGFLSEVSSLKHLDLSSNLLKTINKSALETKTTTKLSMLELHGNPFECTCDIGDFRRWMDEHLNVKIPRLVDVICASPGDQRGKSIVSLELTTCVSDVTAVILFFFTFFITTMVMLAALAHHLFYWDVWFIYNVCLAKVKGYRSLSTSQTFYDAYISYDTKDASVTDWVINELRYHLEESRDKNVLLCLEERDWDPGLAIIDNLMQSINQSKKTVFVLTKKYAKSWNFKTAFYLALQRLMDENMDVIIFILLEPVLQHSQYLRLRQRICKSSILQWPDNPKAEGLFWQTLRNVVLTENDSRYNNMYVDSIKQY

human TLR9 = human TLR9 (Homo sapiens (Human), UniProt Q9NR96); experiment: TLR9 inhibition reporter assay (HEK-Blue SEAP reporter, ODN2006 stimulation);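 also: SEAP reporter under IFN-β minimal promoter with five NF-κB and AP-1 sites, 22 h incubation, compounds 0.05 nM–50 µM, inhibition relative to agonist plus DMSO versus known inhibitor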
Sequence of human TLR9 (Q9NR96 26-1032): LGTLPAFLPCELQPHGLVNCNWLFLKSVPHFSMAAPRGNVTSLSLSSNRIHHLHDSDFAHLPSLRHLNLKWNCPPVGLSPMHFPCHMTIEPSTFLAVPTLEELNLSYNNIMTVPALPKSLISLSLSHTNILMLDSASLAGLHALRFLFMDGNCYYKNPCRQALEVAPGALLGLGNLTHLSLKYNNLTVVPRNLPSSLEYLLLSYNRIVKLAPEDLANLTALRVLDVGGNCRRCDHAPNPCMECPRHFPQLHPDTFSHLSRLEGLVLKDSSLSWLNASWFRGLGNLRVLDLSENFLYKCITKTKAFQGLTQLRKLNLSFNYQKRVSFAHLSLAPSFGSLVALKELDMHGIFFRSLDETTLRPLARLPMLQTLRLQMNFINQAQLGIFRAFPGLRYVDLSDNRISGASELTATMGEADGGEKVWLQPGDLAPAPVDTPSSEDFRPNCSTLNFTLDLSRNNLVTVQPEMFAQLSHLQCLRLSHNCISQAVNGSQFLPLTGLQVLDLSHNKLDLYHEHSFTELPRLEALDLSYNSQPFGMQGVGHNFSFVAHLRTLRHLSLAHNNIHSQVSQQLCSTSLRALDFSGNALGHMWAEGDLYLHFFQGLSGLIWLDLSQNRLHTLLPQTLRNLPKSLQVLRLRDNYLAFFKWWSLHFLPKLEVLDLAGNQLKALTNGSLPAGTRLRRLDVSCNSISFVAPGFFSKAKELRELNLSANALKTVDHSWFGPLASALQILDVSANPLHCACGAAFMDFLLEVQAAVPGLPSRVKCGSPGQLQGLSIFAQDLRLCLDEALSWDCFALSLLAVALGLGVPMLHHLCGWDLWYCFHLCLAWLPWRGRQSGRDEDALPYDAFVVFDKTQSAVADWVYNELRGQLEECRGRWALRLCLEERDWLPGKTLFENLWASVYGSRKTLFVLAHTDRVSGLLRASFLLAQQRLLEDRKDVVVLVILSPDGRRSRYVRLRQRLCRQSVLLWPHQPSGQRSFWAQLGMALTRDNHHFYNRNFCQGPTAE

[1] = read-out: TLR8 IC50, HEK-Blue cells overexpressing human TLR8, R848 15.9 μM, SEAP reporter
[2] = read-out: TLR9 IC50, HEK-Blue cells overexpressing human TLR9, ODN2006 5 nM, SEAP reporter

Sequence of human TLR7 (Q9NYK1 27-1049): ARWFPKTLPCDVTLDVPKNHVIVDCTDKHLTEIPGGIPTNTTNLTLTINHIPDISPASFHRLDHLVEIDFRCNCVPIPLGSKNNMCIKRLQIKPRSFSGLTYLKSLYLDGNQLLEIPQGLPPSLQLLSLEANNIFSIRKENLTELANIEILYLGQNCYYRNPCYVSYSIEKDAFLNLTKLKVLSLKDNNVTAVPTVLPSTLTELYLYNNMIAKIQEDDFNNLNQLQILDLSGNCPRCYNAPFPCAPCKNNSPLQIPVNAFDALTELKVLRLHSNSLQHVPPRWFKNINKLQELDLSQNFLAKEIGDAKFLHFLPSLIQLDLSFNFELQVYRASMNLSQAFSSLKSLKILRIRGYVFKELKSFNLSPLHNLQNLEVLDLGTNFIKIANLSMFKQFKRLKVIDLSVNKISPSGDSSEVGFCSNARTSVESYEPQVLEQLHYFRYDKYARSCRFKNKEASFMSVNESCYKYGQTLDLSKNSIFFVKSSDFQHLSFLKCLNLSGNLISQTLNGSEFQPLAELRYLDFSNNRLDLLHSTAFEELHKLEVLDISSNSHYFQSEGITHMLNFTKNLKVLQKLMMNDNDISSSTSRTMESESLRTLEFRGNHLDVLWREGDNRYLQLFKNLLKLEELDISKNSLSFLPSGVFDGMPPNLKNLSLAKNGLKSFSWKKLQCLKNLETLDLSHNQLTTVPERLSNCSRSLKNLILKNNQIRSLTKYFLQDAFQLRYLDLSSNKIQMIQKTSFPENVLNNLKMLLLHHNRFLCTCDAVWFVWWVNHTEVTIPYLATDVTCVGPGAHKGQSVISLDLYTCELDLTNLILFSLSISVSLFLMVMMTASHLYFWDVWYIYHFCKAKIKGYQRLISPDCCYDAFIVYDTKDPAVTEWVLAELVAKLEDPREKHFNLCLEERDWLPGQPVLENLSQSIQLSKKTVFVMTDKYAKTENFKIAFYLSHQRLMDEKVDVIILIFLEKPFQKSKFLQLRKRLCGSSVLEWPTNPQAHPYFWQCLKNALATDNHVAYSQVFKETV

| SMILES | IC50 (human TLR7) | IC50 (human TLR8; [1]) | IC50 (human TLR9; [2]) | IC50 (human TLR8) | IC50 (human TLR9) |
| --- | --- | --- | --- | --- | --- |
| Cc1cc(-c2[nH]c3ccc(C(=O)N4CC5CN(C(C)C)CC5C4)cc3c2C(C)C)cc(C)n1 (stereo not drawn) [Example 110, (2-(2,6-dimethylpyridin-4-yl)-3-isopropyl-1H-indol-5-yl)(5-isopropylhexahydropyrrolo[3,4-c]pyrrol-2(1H)-yl)methanone] | 0.049 µM | 0.011 µM | 0.41 µM |  |  |
| Cc1cc(-c2[nH]c3ccc(C(=O)N4CC5CN(C(=O)CN(C)C)CC5C4)cc3c2C(C)C)cc(C)n1 (stereo not drawn) [Example 111, 2-(dimethylamino)-1-(5-(2-(2,6-dimethylpyridin-4-yl)-3-isopropyl-1H-indole-5-carbonyl)hexahydropyrrolo[3,4-c]pyrrol-2(1H)-yl)ethanone] | 0.171 µM | 0.074 µM | 0.668 µM |  |  |
| Cc1cc(-c2[nH]c3ccc(C(=O)N4CC5CN(C)CC5C4)cc3c2C(C)C)ccn1 (stereo not drawn) [Example 115, (3-isopropyl-2-(2-methylpyridin-4-yl)-1H-indol-5-yl)(5-methylhexahydropyrrolo[3,4-c]pyrrol-2(1H)-yl)methanone] | 0.147 µM | 0.0035 µM | 1.58 µM |  |  |
| Cc1cc(-c2[nH]c3ccc(C(=O)N4CC5CN(CC(=O)N(C)C)CC5C4)cc3c2C(C)C)ccn1 (stereo not drawn) [Example 117, 2-(5-(3-isopropyl-2-(2-methylpyridin-4-yl)-1H-indole-5-carbonyl)hexahydropyrrolo[3,4-c]pyrrol-2(1H)-yl)-N,N-dimethylacetamide] | 0.73 µM | 0.02 µM | 3.7 µM |  |  |
| CNC(=O)CN1CC2CN(C(=O)c3ccc4[nH]c(-c5ccnc(C)c5)c(C(C)C)c4c3)CC2C1 (stereo not drawn) [Example 118, 2-(5-(3-isopropyl-2-(2-methylpyridin-4-yl)-1H-indole-5-carbonyl)hexahydropyrrolo[3,4-c]pyrrol-2(1H)-yl)-N-methylacetamide] | 4.05 µM | 0.165 µM | 22.7 µM |  |  |
| Cc1cc(-c2[nH]c3ccc(C(=O)N4CC5CN(C(=O)CN(C)C)CC5C4)cc3c2C(C)C)ccn1 (stereo not drawn) [Example 120, 2-(dimethylamino)-1-(5-(3-isopropyl-2-(2-methylpyridin-4-yl)-1H-indole-5-carbonyl)hexahydropyrrolo[3,4-c]pyrrol-2(1H)-yl)ethan-1-one] | 0.87 µM | 0.047 µM | 0.752 µM |  |  |
| CC(C)c1c(-c2ccnc3[nH]ncc23)[nH]c2ccc(C(=O)N3CC4CNCC4C3)cc12 (stereo not drawn) [Example 121, (hexahydropyrrolo[3,4-c]pyrrol-2(1H)-yl)(3-isopropyl-2-(1H-pyrazolo[3,4-b]pyridin-4-yl)-1H-indol-5-yl)methanone, HCl] | 1.6 µM | 0.122 µM | 3.33 µM |  |  |
| CCN(CCN(C)C)C(=O)c1ccc2[nH]c(-c3cc(C)nc(C)c3)c(CC(F)F)c2c1 [Example 125, 3-(2,2-difluoroethyl)-N-(2-(dimethylamino)ethyl)-2-(2,6-dimethylpyridin-4-yl)-N-ethyl-1H-indole-5-carboxamide] | 0.019 µM | 0.023 µM | 0.727 µM |  |  |
| COc1cc(-c2[nH]c3ccc(C(=O)N(C)CCN(C)C)cc3c2C(C)C)cn2ncnc12 [Example 129, N-(2-(dimethylamino)ethyl)-3-isopropyl-2-(8-methoxy-[1,2,4]triazolo[1,5-a]pyridin-6-yl)-N-methyl-1H-indole-5-carboxamide] | 0.0018 µM | 0.0023 µM | 3.35 µM |  |  |
| Cc1cc(-c2[nH]c3ccc(C(C)C(=O)NCC(C)(C)O)cc3c2C(C)C)ccn1 (stereo not drawn) [Example 131, N-(2-hydroxy-2-methylpropyl)-2-(3-isopropyl-2-(2-methylpyridin-4-yl)-1H-indol-5-yl)propanamide] | 0.657 µM | 0.979 µM | > 50 µM |  |  |
| Cc1cc(-c2[nH]c3ccc(C(C)(C)C(=O)NC[C@@H](F)C(C)(C)O)cc3c2C(C)C)ccn1 [Example 133, (R)—N-(2-fluoro-3-hydroxy-3-methylbutyl)-2-(3-isopropyl-2-(2-methylpyridin-4-yl)-1H-indol-5-yl)-2-methylpropanamide] | 0.284 µM | 0.399 µM | > 50 µM |  |  |
| Cc1cc(-c2[nH]c3ccc(C(C)(C)C(=O)NCCC(C)(C)O)cc3c2C(C)C)ccn1 [Example 135, N-(3-hydroxy-3-methylbutyl)-2-(3-isopropyl-2-(2-methylpyridin-4-yl)-1H-indol-5-yl)-2-methylpropanamide] | 0.202 µM | 0.551 µM | > 50 µM |  |  |
| CC(C)c1c(-c2ccnc3[nH]ncc23)[nH]c2ccc(CCC(=O)N3CCOCC3)cc12 [Example 136, 3-(3-isopropyl-2-(1H-pyrazolo[3,4-b]pyridin-4-yl)-1H-indol-5-yl)-1-morpholinopropan-1-one] | 1.76 µM | 0.411 µM | > 50 µM |  |  |

The next lines start with the values.

| IC50 (human TLR7) | IC50 (human TLR8; [1]) | IC50 (human TLR9; [2]) | IC50 (human TLR8) | IC50 (human TLR9) | SMILES |
| --- | --- | --- | --- | --- | --- |
| 0.335 µM |  |  | 0.036 µM | 0.334 µM | Cc1cc(-c2[nH]c3ccc(C(=O)N4CC5CNCC5C4)cc3c2C(C)C)ccn1 (stereo not drawn) [Example 112, (hexahydropyrrolo[3,4-c]pyrrol-2(1H)-yl)(3-isopropyl-2-(2-methylpyridin-4-yl)-1H-indol-5-yl)methanone, HCl] |
| 0.05 µM | 0.0008 µM | 1.27 µM |  |  | Cc1cc(-c2[nH]c3ccc(C(=O)NC4CCN(C(C)C)CC4)cc3c2C(C)C)ccn1 [Example 113, 3-isopropyl-N-(1-isopropylpiperidin-4-yl)-2-(2-methylpyridin-4-yl)-1H-indole-5-carboxamide] |
| 0.135 µM | 0.0024 µM | 3.63 µM |  |  | Cc1cc(-c2[nH]c3ccc(C(=O)N4CCCN(C)CC4)cc3c2C(C)C)ccn1 [Example 114, (3-isopropyl-2-(2-methylpyridin-4-yl)-1H-indol-5-yl)(4-methyl-1,4-diazepan-1-yl)methanone] |
| 0.117 µM | 0.0036 µM | 0.985 µM |  |  | Cc1cc(-c2[nH]c3ccc(C(=O)N4CC5CN(C(C)C)CC5C4)cc3c2C(C)C)ccn1 (stereo not drawn) [Example 116, (3-isopropyl-2-(2-methylpyridin-4-yl)-1H-indol-5-yl)(5-isopropylhexahydropyrrolo[3,4-c]pyrrol-2(1H)-yl)methanone] |
| 2.61 µM | 0.226 µM | 2.23 µM |  |  | CNCC(=O)N1CC2CN(C(=O)c3ccc4[nH]c(-c5ccnc(C)c5)c(C(C)C)c4c3)CC2C1 (stereo not drawn) [Example 119, 1-(5-(3-isopropyl-2-(2-methylpyridin-4-yl)-1H-indole-5-carbonyl)hexahydropyrrolo[3,4-c]pyrrol-2(1H)-yl)-2-(methylamino)ethanone] |
| 2.26 µM | 5.65 µM | 1.46 µM |  |  | Cc1cc(-c2[nH]c3ccc(C(=O)N4CC5CNCC5C4)cc3c2CC(F)F)cc(C)n1 (stereo not drawn) [Example 122, (3-(2,2-difluoroethyl)-2-(2,6-dimethylpyridin-4-yl)-1H-indol-5-yl)(hexahydropyrrolo [3,4-c]pyrrol-2(1H)-yl)methanone] |
| 0.083 µM | 0.075 µM | 0.231 µM |  |  | Cc1cc(-c2[nH]c3ccc(C(=O)NC4CCN(C(C)C)CC4)cc3c2CC(F)F)cc(C)n1 [Example 123, 3-(2,2-difluoroethyl)-2-(2,6-dimethylpyridin-4-yl)-N-(1-isopropylpiperidin-4-yl)-1H-indole-5-carboxamide] |
| 0.128 µM | 0.036 µM | 1.12 µM |  |  | Cc1cc(-c2[nH]c3ccc(C(=O)N4CCCN(C)CC4)cc3c2CC(F)F)cc(C)n1 [Example 124, (3-(2,2-difluoroethyl)-2-(2,6-dimethylpyridin-4-yl)-1H-indol-5-yl)(4-methyl-1,4-diazepan-1-yl)methanone] |
| 0.029 µM | 0.233 µM | 2.41 µM |  |  | COc1cc(-c2[nH]c3ccc(C(=O)N4CC5CNCC5C4)cc3c2C(C)C)cn2ncnc12 (stereo not drawn) [Example 126, (hexahydropyrrolo[3,4-c]pyrrol-2(1H)-yl)(3-isopropyl-2-(8-methoxy-[1,2,4]triazolo[1,5-a]pyridin-6-yl)-1H-indol-5-yl)methanone] |
| 0.0025 µM | 0.0017 µM | 0.916 µM |  |  | COc1cc(-c2[nH]c3ccc(C(=O)NC4CCN(C(C)C)CC4)cc3c2C(C)C)cn2ncnc12 [Example 127, 3-isopropyl-N-(1-isopropylpiperidin-4-yl)-2-(8-methoxy-[1,2,4]triazolo[1,5-a]pyridin-6-yl)-1H-indole-5-carboxamide] |
| 0.0038 µM | 0.0026 µM | 1.4 µM |  |  | COc1cc(-c2[nH]c3ccc(C(=O)N4CCCN(C)CC4)cc3c2C(C)C)cn2ncnc12 [Example 128, (3-isopropyl-2-(8-methoxy-[1,2,4]triazolo[1,5-a]pyridin-6-yl)-1H-indol-5-yl)(4-methyl-1,4-diazepan-1-yl)methanone] |
| 0.748 µM | 0.818 µM | > 50 µM |  |  | Cc1cc(-c2[nH]c3ccc(C(C)C(=O)NC[C@@H](F)C(C)(C)O)cc3c2C(C)C)ccn1 (stereo partly drawn) [Example 130, N—((R)-2-fluoro-3-hydroxy-3-methylbutyl)-2-(3-isopropyl-2-(2-methylpyridin-4-yl)-1H-indol-5-yl)propanamide] |
| 0.063 µM | 0.11 µM | 1.09 µM |  |  | Cc1cc(-c2[nH]c3ccc(C(C)(C)C(=O)NCCN)cc3c2C(C)C)ccn1 [Example 134, N-(2-aminoethyl)-2-(3-isopropyl-2-(2-methylpyridin-4-yl)-1H-indol-5-yl)-2-methylpropanamide] |
| 0.109 µM | 0.032 µM | 0.84 µM |  |  | COc1ccc(-c2[nH]c3ccc(CCC(=O)N4CC5CNCC5C4)cc3c2C(C)C)cc1OC (stereo not drawn) [Example 137, 3-(2-(3,4-dimethoxyphenyl)-3-isopropyl-1H-indol-5-yl)-1-(hexahydropyrrolo[3,4-c]pyrrol-2(1H)-yl)propan-1-one] |

— US11420973B2, “Amide substituted indole compounds useful as TLR inhibitors” (BRISTOL-MYERS SQUIBB COMPANY, priority 2017, dated 2022)
